Assay type in all cases: in vivo
Holding throughout (conditions): 250 g/ha, evaluated visually after 13 days, scale 0-5

The subject of experiment [1] is Abutilon theophrasti (ABUTH). The experiment in a line: Herbicidal efficacy, application pre-emergence. Set-up: key: 5 = total damage to plant; 0 = no damage to plant. The method, then: (§1) Seeds of a variety of test species [Ipomoea hederacea (IPOHE); Zea mays (ZEAMX); Echinochloa crus-galli (ECHCG); Setaria faberi (SETFA); Abutilon theophrasti (ABUTH); Amaranthus retroflexus (AMARE)] were sown in standard sterilised soil in pots. After cultivation for one day (pre-emergence) or after 8 days cultivation (post-emergence) under controlled conditions in a glasshouse (at 24/16° C., day/night; 14 hours light; 65 % humidity), the plants were sprayed with an aqueous spray solution derived from the formulation of the technical active ingredient in acetone / water (50:50) solution containing 0.5% Tween 20 (polyoxyethelyene sorbitan monolaurate, CAS RN 9005-64-5), subsequently diluted in water, and sprayed to give the stated application rate.
(§2) The test plants were then grown under controlled conditions in a glasshouse (at 24/16° C., day/night; 14 hours light; 65 % humidity) and watered twice daily.
(§3) After 13 days for pre- and post-emergence, the test was evaluated visually for percentage phytotoxicity to the plant (where 5 = total damage to plant; 0 = no damage to plant).

In experiment [2] the test system is Amaranthus retroflexus (AMARE). The experiment can be described thus: Herbicidal efficacy, application pre-emergence. Set-up: key: 5 = total damage to plant; 0 = no damage to plant. The method, then: as §1, §2, §3
The subject of experiment [3] is Echinochloa crus-galli (ECHCG). The experiment can be described thus: Herbicidal efficacy, application pre-emergence. On the set-up: key: 5 = total damage to plant; 0 = no damage to plant. On the procedure:
as §1, §2, §3

Experiment [4] deals with Ipomoea hederacea (IPOHE). The experiment in a line: Herbicidal efficacy, application pre-emergence. On the set-up: key: 5 = total damage to plant; 0 = no damage to plant. On the procedure: as §1, §2, §3
Experiment [5] deals with Setaria faberi (SETFA). The experiment can be described thus: Herbicidal efficacy, application pre-emergence. Set-up: key: 5 = total damage to plant; 0 = no damage to plant. The method, then:
as §1, §2, §3

Experiment [6] concerns Zea mays (ZEAMX). The experiment in a line: Herbicidal efficacy, application pre-emergence. The method, then: as §1, §2, §3
Experiment [7] deals with Amaranthus retroflexus (AMARE). The experiment can be described thus: Herbicidal efficacy, application post-emergence. The method, then:
as §1, §2, §3

Experiment [8] has as its system Echinochloa crus-galli (ECHCG). The experiment can be described thus: Herbicidal efficacy, application post-emergence. The method, then: as §1, §2, §3
The subject of experiment [9] is Ipomoea hederacea (IPOHE). The experiment in a line: Herbicidal efficacy, application post-emergence. On the procedure:
as §1, §2, §3

In experiment [10] the test system is Setaria faberi (SETFA). The experiment in a line: Herbicidal efficacy, application post-emergence. On the procedure:
as §1, §2, §3

In experiment [11] the test system is Zea mays (ZEAMX). The experiment in a line: Herbicidal efficacy, application post-emergence. On the procedure:
as §1, §2, §3

The test system of experiment [12] is Abutilon theophrasti (ABUTH). The experiment can be described thus: Herbicidal efficacy, application post-emergence. On the set-up: key: 5 = total damage to plant; 0 = no damage to plant. The method, then:
as §1, §2, §3

Here are results for 6 compounds from patent publication US20230312478A1, “HERBICIDAL COMPOUNDS” (SYNGENTA CROP PROTECTION AG, priority 2020, published 2023).

`Cc1cc(C2CN(C)C(=O)C2C(=O)Nc2ccc(F)nc2F)nn1C(F)F` (stereo not drawn) [Compound 81, 4-[1-(difluoromethyl)-5-methyl-pyrazol-3-yl]-N-(2,6-difluoro-3-pyridyl)-1-methyl-2-oxo-pyrrolidine-3-carboxamide]: the “phytotoxicity to the plant, ABUTH” value in [1] and in experiment [12] was 0 each time. Moreover, the “phytotoxicity to the plant, AMARE” value in experiment [2] turned out to be 0; in experiment [7] it was 2. Further, the “phytotoxicity to the plant, ECHCG” value in experiment [3] is 5; in experiment [8], 4. Also, the “phytotoxicity to the plant, IPOHE” value in experiment [4] was found to be 2; in experiment [9] it was 1. Moreover, the results for the “phytotoxicity to the plant, SETFA” value in experiment [5] and in experiment [10] were 5 and 4, respectively. Besides, the “phytotoxicity to the plant, ZEAMX” value in experiment [6] came out at 2; in experiment [11], 4.

For the compound `Cc1c(F)cccc1NC(=O)C1C(=O)N(C)CC1c1cc(C)n(C(F)F)n1` (stereo not drawn) [Compound 9, 4-[1-(difluoromethyl)-5-methyl-pyrazol-3-yl]-N-(3-fluoro-2-methyl-phenyl)-1-methyl-2-oxo-pyrrolidine-3-carboxamide], the “phytotoxicity to the plant, ABUTH” value is on record as 1 in experiment [1] and 0 in [12]. The “phytotoxicity to the plant, AMARE” value in experiment [2] was found to be 1; in experiment [7], 3. Besides, the “phytotoxicity to the plant, ECHCG” value is 5 in experiment [3] and 4 in [8]. Besides, the figures for the “phytotoxicity to the plant, IPOHE” value in experiment [4] and in experiment [9] were 1 and 3, respectively. The results for the “phytotoxicity to the plant, SETFA” value in experiment [5] and in experiment [10] were 5 and 4, respectively. Moreover, the “phytotoxicity to the plant, ZEAMX” value in [6] and in experiment [11] was 3 in each case.

Regarding `Cc1cc(C2CN(C)C(=S)C2C(=O)Nc2ccc(F)cc2F)nn1C(F)F` (stereo not drawn) [Compound 61, 4-[1-(difluoromethyl)-5-methyl-pyrazol-3-yl]-N-(2,4-difluorophenyl)-1-methyl-2-thioxo-pyrrolidine-3-carboxamide], the “phytotoxicity to the plant, ABUTH” value in experiment [1] and in [12] was 0 each time. Moreover, the “phytotoxicity to the plant, AMARE” value in [2] is recorded as 2; in experiment [7] it was 1. In addition, the entries for the “phytotoxicity to the plant, ECHCG” value in experiment [3] and in experiment [8] were 5 and 4, respectively. For the same compound, the “phytotoxicity to the plant, IPOHE” value in experiment [4] came out at 0; in [9], 1. Moreover, the “phytotoxicity to the plant, SETFA” value in experiment [5] is 5; in experiment [10] it was 3. Also, the entries for the “phytotoxicity to the plant, ZEAMX” value in [6] and in experiment [11] were 1 and 2, respectively.

`CCc1cc(C2CN(C)C(=S)C2C(=O)Nc2ccc(F)cc2F)nn1C(F)F` (stereo not drawn) [Compound 62, 4-[1-(difluoromethyl)-5-ethyl-pyrazol-3-yl]-N-(2,4-difluorophenyl)-1-methyl-2-thioxo-pyrrolidine-3-carboxamide]: the “phytotoxicity to the plant, ABUTH” value came to 0 in experiment [1] and 1 in [12]. Further, the “phytotoxicity to the plant, AMARE” value in experiment [2] turned out to be 0; in experiment [7], 1. Besides, the “phytotoxicity to the plant, ECHCG” value in experiment [3] came to 5; in [8], 4. In addition, the “phytotoxicity to the plant, IPOHE” value stood at 0 in experiment [4] and 1 in [9]. Further, the results for the “phytotoxicity to the plant, SETFA” value in experiment [5] and in experiment [10] were 5 and 4, respectively. Moreover, the “phytotoxicity to the plant, ZEAMX” value is reported as 2 in experiment [6] and 1 in experiment [11].

For `CCc1cc(C2CN(C)C(=S)C2C(=O)Nc2cccc(F)c2F)nn1C(F)F` (stereo not drawn) [Compound 38, 4-[1-(difluoromethyl)-5-ethyl-pyrazol-3-yl]-N-(2,3-difluorophenyl)-1-methyl-2-thioxo-pyrrolidine-3-carboxamide], the “phytotoxicity to the plant, ABUTH” value in experiment [1] and in experiment [12] was 0 throughout. Also, the “phytotoxicity to the plant, AMARE” value in experiment [2] is listed as 0; in [7], 1. Also, the “phytotoxicity to the plant, ECHCG” value in [3] is 5; in [8], 4. For the same compound, the “phytotoxicity to the plant, IPOHE” value in experiment [4] worked out at 2; in [9], 4. Also, the “phytotoxicity to the plant, SETFA” value in experiment [5] worked out at 5; in experiment [10], 4. Also, the “phytotoxicity to the plant, ZEAMX” value is 4 in [6] and 3 in experiment [11].

Turning to `Cc1c(Br)c(C2CN(C)C(=O)C2C(=O)Nc2ccc(F)cc2F)nn1C(F)F` (stereo not drawn) [Compound 59, 4-[4-bromo-1-(difluoromethyl)-5-methyl-pyrazol-3-yl]-N-(2,4-difluorophenyl)-1-methyl-2-oxo-pyrrolidine-3-carboxamide], the “phytotoxicity to the plant, ABUTH” value is 1 in [1] and 0 in experiment [12]. Further, the “phytotoxicity to the plant, AMARE” value is 0 in experiment [2] and 1 in [7]. Moreover, the results for the “phytotoxicity to the plant, ECHCG” value in [3] and in experiment [8] were 5 and 4, respectively. Also, the “phytotoxicity to the plant, IPOHE” value turned out to be 0 in experiment [4] and 1 in experiment [9]. In addition, the “phytotoxicity to the plant, SETFA” value in experiment [5] stood at 5; in experiment [10], 4. Also, the “phytotoxicity to the plant, ZEAMX” value in experiment [6] is reported as 1; in experiment [11], 3.
